For one test, the system named is skeletal muscle fibers. Nature of the test: Histological analysis of skeletal muscle (H&E, muscle-fiber diameter). Type of test: in vivo, mouse. As to conditions: mice receiving creatine supplements (i.p. or food); biceps femoris. The procedure:
Skeletal muscle (biceps femoris) harvested from control (Ctrl) and experimental (Creatine ip and Creatine food) mice were fixed in 10% neutral-buffered formalin and embedded in paraffin for sectioning (5-μm thickness), followed by H&E staining using standard procedures (UCLA Translational Pathology Core Laboratory). The sections were imaged using an Olympus BX51 upright microscope equipped with a Macrofire® CCD camera (Optronics®). The muscle-fiber diameter was assessed with the use of an ImageJ software (NIH).

For the next test, the system named is B16-OVA tumors. As to the kind of experiment: B16-OVA tumors in immunodeficient NSG mice, creatine supplementation. Conditions: i.p. creatine. Type of test: in vivo, mouse.
The subject of a further test is Zap-70. As to the kind of experiment: Western blot of TCR proximal signaling in CD8 T cells with creatine supplementation. Type of test: cell-based, mouse. Conditions: CrT-WT CD8 T cells; creatine 0.5 mM; anti-CD3 stimulation. The procedure:
CD8 T cells were cultured in vitro in standard T cell culture medium comprising RPMI 1640 (Cat #10040, Corning), 10% FBS (Cat #F2442, Sigma), 1% Penicillin-Streptomycin-Glutamine (Cat #10378016, Gibco), 1% MEM Non-Essential Amino Acids Solution (Cat #11140050, Gibco), 1% HEPES (Cat #15630080, Gibco), 1% Sodium Pyruvate (100 mM) (Cat #11360070, Gibco), and 0.05 mM β -Mercaptoethanol (Cat #M3148, Sigma). Unless otherwise indicated, cells were seeded at 0.5×10^6 cells per well in 24-well plates and stimulated with plate-bound anti-CD3 (5 μg/ml) (clone 145-2C11), for up to 5 days. At indicated time point(s), cells were collected and analyzed for CrT mRNA expression using qPCR, for cell proliferation through cell counting, for viability through Annexin V/7-AAD staining followed by flow cytometry analysis, for surface activation marker (CD25) expression through surface staining followed by flow cytometry analysis, for effector molecule (Granzyme B, IL-2, and IFN-γ) production through intracellular staining followed by flow cytometry analysis, and for cytokine (IL-2 and IFN-γ) secretion through collecting cell culture supernatants followed by ELISA analysis. CrT protein expression and TCR signaling events were analyzed using western blot analysis. […]
Background: A western blot detects proteins with antibodies after separation by electrophoresis.

The results in this text go back to patent US20220288001A1, “CREATINE FOR IMMUNOTHERAPY” (The Regents of the University of California, priority 2019, published 2022).

Regarding `CN(CC(=O)O)C(=N)N` [creatine], the “skeletal muscle fiber size” value with skeletal muscle fibers is listed as “enlargement of skeletal muscle fibers”. For the same compound, the tumor growth entry in the test on B16-OVA tumors was “could not be suppressed”. For the same compound, the Zap-70 phosphorylation result in the test with Zap-70 is listed as “significantly increased”.
